The values below come from patent US7605149B1, “Modulation of the phospholipase A2 pathway as a therapeutic” (University of South Florida, priority 1998, dated 2009).

Assay [1] deals with p38 MAPK in differentiated PC12 cells. The experiment in a line: Immunolocalization of activated p38 MAPK in neuronal cells. It is filed as cell-based, rat. The conditions noted are these: 10 and 20 min, FIG. 26. The method, then: Immunolocalization of activated p38 MAPK in neuronal cells. Cells were treated as described above, and were plated on glass cover-slips which had been soaked in 10 μg/mL of mouse laminin. Following differentiation, neuronal cells were treated with soluble Aβ1-40 (5 μM) or anasomycin (20 μM, a known stimulator of p38 MAPK) for 10 and 20 min, and immediately fixed in 4% paraformaldehyde in 0.1 M PBS, pH 7.4 for 30 min at 4° C. Cells were washed multiple times in PBS, and incubated for 3 h with a phospho-specific antibody recognizing active active p38 MAPK. Cells were then washed multiple times in PBS and incubated with a secondary HRP-conjugated antibody. Immunostaining was performed using the DAKO ABC kit, cells were counterstained with hematoxylin-eosin, and cells were then observed under a microscope.

For assay [2], the system named is rat aortae (aortic rings). Briefly: Vessel bath vasoactivity assay: ET-1-induced vasoconstriction of rat aortic rings and its enhancement by Aβ or sPLA2. Type of assay: cell-based. The method, then:
Vessel experiments. Freshly dissected aortae were prepared from normal male Sprague-Dawley rats (7-8 months old, purchased from Zivic Miller, Zelienople, Pa.) as previously described by Paris et al, Exp Neurol 1998 and Exp Neurol 1999. Rat aortae were segmented into rings and suspended in Kreb's buffer on hooks connected to a tensiometer linked to a MacLab system. Aortic rings were equilibrated for 2 hours, in 7 mL tissue baths containing Kreb's buffer oxygenated with 95% O2: 5% CO2, and thermoregulated to 37° C. A baseline tension of 2 g was applied to each ring, and the first set of aortic rings was pretreated with the various compounds named above either alone or in combination with Aβ peptides. After 5 minutes of incubation in the presence or absence of Aβ, this first set of vessels was subjected to a dose range of ET-1 (from 1 nM to 5 nM). A second set of vessels was treated with 1 μM of Aβ peptides prior to the addition of ET-1. A third set (control) received only ET-1 treatment. Each ET-1 dose was added only after the constriction response to the previous dose had reached a plateau. In all cases the means ±1 standard error (SE) of the percentage vasoconstriction increase over baseline were determined for each dose of ET-1 used.
(§1) Statistical analysis. Analysis of variance (ANOVA) was used to analyze the data, with post-hoc comparisons of means carried out where appropriate by Sheffe's or Bonferonni's methods. As previously described (Paris et al., Neurosci Lett, 1998), a significant interactive term by ANOVA was taken as evidence that both drug x and Aβ are modulating a common signal transduction pathway. […] Levene's test for equality of variance followed by t-test for independent samples was used for single mean comparisons. Alpha levels were set at 0.05 for all analyses. Analyses were performed using SPSS for Windows release 9.5.

For assay [3], the system named is intact rat aortae (aortic rings). Briefly: [3H]AA release in intact rat aortae. Type of assay: cell-based. To be noted: 5 minutes, then ET-1 dose range. As to the method: Measurement of [^3H]AA release in intact rat aortae. Aortic rings (1.5 mm long) were placed in 1 mL of physiological saline solution (PSS, containing 130 mM NaCl, 5 mM KCl, 1.5 mM CaCl2, 1.2 mM MgCl2, 10 mM HEPES, and 10 mM glucose adjusted to pH 7.2 with NaOH) and incubated with 2.5 μCi of [^3H]AA (specific activity of 91.8 Ci/mmol) for 24 h at 4° C. Rat aortae were subsequently washed in 50 mL of Kreb's buffer and then subjected to the vasoactivity assay. Initial background [^3H]AA release was determined following 30 min of equillibration for each aortic ring prior to treatment by removing 200 μL of Kreb's buffer (total volume of 7 mL each) from each bath, and measuring radioactivity (in cpm) after the addition of 1 mL of scintillant (EcoLume, ICN Inc., Calif.) using a liquid scintillation counter (1209 Rackbeta, WALLAC Inc., Md.). Subsequently, aortic rings were treated with sPLA2 alone or Aβ1-40 (1 μM) in the presence or absence of a MEK1/2 inhibitor (PD 98059) or a cPLA2 inhibitor (AACOCF3) for 5 min, or went untreated for the same length of time (control). Quantification of [^3H]AA release was then preformed as described above. All aortic rings were then subjected to a dose range of ET-1 (1, 2.5, and 5 nM), and radioactivity was measured 5 min after the first dose of ET-1 (1 nM), and 20 min after the second (2.5 nM) and third (5 nM) doses of ET-1. Radioactivity incorporated into each ring was determined by placing the aortic ring in 1 mL of scintillant and assaying as described above. Results are expressed as the means ±1 SE of the percentage of [^3H]AA incorporated for each aortic ring [([^3H]AA released—[^3H]AA initial background)/incorporated [^3H]AA].
as §1

A further assay has as its system N9 microglial cells. Briefly: Leukotriene B4 (LTB4) ELISA on microglial cell supernatants. It is filed as cell-based, murine. The conditions noted are these: 500 nM, 18 hours; FIG. 23. The method, then: Leukotriene -B4 (LTB4) enzyme-linked immunoabsorbant assay (ELISA). Quantitative determination of LTB4 levels was made using a competitive binding ELISA (R&D Systems, Minneapolis, Minn.) designed to measure LTB4 in cell culture supernatants (as described in Paris et al., Exp Neurol 1999). A murine microglial cell line (N9) was provided by Dr. Paola Ricciardi-Castagnoli (Cellular Pharmacology Center, Milan, Italy) and were grown in RPMI medium supplemented with five percent fetal calf serum, 2 mM glutamine, 100 U/mL penicillin, […] streptomycin and 0.05 mM 2-mercaptoethanol. Microglial cells were seeded at 50,000 cells/well in 6-well plates (Falcon, France) and treated with Aβ1-40 (500 nM), drugs which oppose the PLA2/AA/5-LOX/COX-2 pathway, or untreated (control) and incubated for 18 hours. Cell supernatants were then collected and diluted 10-fold in assay buffer. 50 μL of diluted samples were then used in the assay, and each sample was assayed in duplicate. Manipulations were performed in accordance with the manufacturer's instruction. A spectramax 250 spectrophotometer (Molecular Devices, San Diego, USA) was used to measure absorbance at 405 nm and a standard curve was plotted using a 4-parameter model.
as §1
A general note: An ELISA detects its analyte on a solid surface through an enzyme-linked reagent.

For a further assay, the system named is N9 microglia. The experiment in a line: [3H]AA release in cultured microglial cells. It is filed as cell-based, murine. To be noted: FIG. 24. The method, then:
Measurement of [^3H]AA release in cultured cells. Microglial cells were cultured as described above, seeded at 50,000 cells/well in 6-well plates (Falcon, France), and incubated with 0.4 μCi/mL [^3H]AA for 18 h. Cells were washed multiple times with 1 mL of complete medium and were then treated with 1 μM of Aβ1-40 or 10 U/mL of sPLA2 for 5 h. Cell culture supernatants were collected each hour following treatment and radioactivity was quantified as described above.
as §1

Assay [4] concerns NGF-β differentiated PC12 cells. The experiment in a line: [3H]AA release in neuronal cells. To be noted: FIG. 25. It is filed as cell-based, rat. As to the method:
Measurement of [^3H]AA release in neuronal cells (cultured differentiated PC12 cells). A rat pheochromocytoma cell line (PC12) was grown in Kahn's modification of F12 medium supplemented with 10% fetal calf serum, 100 U/mL penicillin and […] streptomycin. PC12 cells were seeded at 35,000 cells/well and differentiated with 60 ng/mL NGF-β for 5-6 days and then maintained with 5 ng/mL NGF-β thereafter. PC12 cells were treated with 0.4 μCi/mL of [^3H]AA for 18 h and were washed multiple times with 1 mL of complete medium to remove unincorporated [^3H]AA. Cells were then treated with 1 μM of Aβ1-40 or 40 U/mL of sPLA2 for 5 h. Cell culture supernatants were collected each hour following treatment and radioactivity was quantified as described above.
Statistical analysis. Analysis of variance (ANOVA) was used to analyze the data, with post-hoc comparisons of means carried out where appropriate by Sheffe's or Bonferonni's methods. Levene's test for equality of variance followed by t-test for independent samples was used for single mean comparisons. Alpha levels were set at 0.05 for all analyses. Analyses were performed using SPSS for Windows release 9.5.

Assay [5] relates to rat aortae (aortic rings). To be noted: freshly solubilized; previously shown (Crawford et al., 1998); cited from earlier work.

With `COc1ccc(C[C@H]2NC[C@H](O)[C@H]2OC(C)=O)cc1` [anisomycin], the “activation of p38 MAPK (phospho-specific immunostaining)” value in assay [1] (20 μM) was “brown immunostaining is intensified, and a strong nuclear staining is evident”.

With “Aβ1-40: soluble β-amyloid peptide containing forty amino acids, obtained from QCB”, the “enhancement of ET-1-induced vasoconstriction versus Aβ-free condition” value in assay [2] (50 nM dose, across 2.5 nM and 5 nM ET-1, FIG. 1) is on record as “significant difference”. The “duration of ET-1-induced vasoconstriction (vasotension t=0 to 10 minutes after 5 nM ET-1)” value in assay [2] (1 μM, 5 minutes prior to ET-1 (1, 2.5, 5 nM), FIG. 2) is recorded as “induces a long-lasting vasoconstriction”. The “lowest dose giving sustained constriction / enhancement of ET-1-induced vasoconstriction” value in assay [2] (freshly solubilized peptide) is listed as at most 50 nM. In assay [3] (Aβ1-40 1 μM, FIG. 21), the “[3H]AA release from aortic rings” value is “enhances the release of [^3H]AA from aortic rings”. For the same molecule, the “microglial LTB4 release” value in the assay with N9 microglial cells is given as “increased release of LTB4”. Also, the “[3H]AA release in N9 microglia” value with N9 microglia (1 μM for 5 h) is given as “stimulates AA release from N9 microglia”. For the same molecule, the “[3H]AA release in neuronal cells” value in assay [4] (1 μM for 5 h) is listed as “stimulates AA release from neuronal cells”. Moreover, the “activation of p38 MAPK (phospho-specific immunostaining)” value in assay [1] (Aβ1-40 5 μM) is given as “increases the phosphorylation of p38 MAPK”. Besides, in assay [5], the “magnitude of constriction induced by ET-1 in isolated mammalian vessels” value is “increase the magnitude of constriction induced by ET-1”.

With “type I sPLA2: secretory porcine pancreatic PLA2 (type I sPLA2), purchased from Sigma”, in assay [2] (1 U/mL, 5 minutes prior to ET-1 dose range, FIG. 6), the “effect on ET-1-induced vasoconstriction” value is recorded as “able to enhance the vasoconstriction induced by ET-1”. In assay [2] (added directly into the vessel bath, without ET-1), the intrinsic vasoactive properties result is on record as “does not display intrinsic vasoactive properties”. Further, the “[3H]AA release from aortic rings” value in assay [3] (10 U/mL, FIG. 20) is “increased release of [^3H]AA”. For the same molecule, in the assay on N9 microglia (10 U/mL for 5 h), the “[3H]AA release in N9 microglia” value was “induces the release of [^3H]AA”. In addition, the “[3H]AA release in neuronal cells” value in assay [4] (40 U/mL for 5 h) is “induces the release of [^3H]AA”.
